In patent publication US8673915B2, “P 2×4 receptor antagonist” (Nippon Chemiphar Co., Ltd., priority 2010, dated 2014):
Where a name gives a salt, the structure may show the parent alone.

Target: T1, P2X4 receptor (Homo sapiens, UniProt Q99571)
T1 sequence (Q99571 1-388): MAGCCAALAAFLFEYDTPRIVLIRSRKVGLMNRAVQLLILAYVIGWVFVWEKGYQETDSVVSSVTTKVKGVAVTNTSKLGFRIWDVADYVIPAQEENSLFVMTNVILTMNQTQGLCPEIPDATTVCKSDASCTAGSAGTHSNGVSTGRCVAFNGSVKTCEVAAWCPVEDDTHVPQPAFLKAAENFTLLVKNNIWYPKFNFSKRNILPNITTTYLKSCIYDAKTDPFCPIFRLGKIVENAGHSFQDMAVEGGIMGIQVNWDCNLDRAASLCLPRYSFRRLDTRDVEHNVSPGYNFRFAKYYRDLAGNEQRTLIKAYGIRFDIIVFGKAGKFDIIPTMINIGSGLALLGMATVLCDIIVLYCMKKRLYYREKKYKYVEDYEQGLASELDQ
Assay: not given
Settings: disclosed in Non-patent document 8; cited from earlier work

SMILES	P2X4 receptor antagonism
Fc1ccc([C@@H]2CCNC[C@H]2COc2ccc3c(c2)OCO3)cc1 [Paroxetine]	shows P2X4 receptor antagonism

Target: T1, P2X4 receptor
Assay: Intracellular calcium assay (Fura-2 AM) of ATP-induced calcium influx in 1321N1 cells stably expressing human P2X4 receptors
Format: cell-based
Settings: Table 25, Example 30; 1321N1 cells expressing human P2X4; compounds added 15 minutes before ATP; Fura-2 340/380 nm ratio; read-out: IC50 (P2X4 receptor antagonism)
Method: 1321N1 cells stably expressing human P2X4 receptors were plated in 96-well assay plate and cultured 24 hours at 37° C. in an atmosphere of 5% CO2 for intracellular calcium assay. Fura-2 AM calcium fluorescent indicator was used for the intracellular calcium assay. Fura-2 AM was dissolved in an assay buffer, and the solution was loaded onto cells. The obtained plate was used for fluorescent assay. Test compounds were treated to cells 15 minutes before the addition of ATP, and the response to intracellular calcium influx induced by addition of ATP was monitored by a micro plate reader. The fluorescence ratio of excitations wavelengths of 340 nm and 380 nm was used as the index of intracellular calcium change. The inhibition activities of the test compounds were calculated by comparison with the absence of the test compound (control).
P2X4 receptor antagonism of the compound of the present invention was measured as described below.
P2X4 receptor antagonism of the compound of the present invention was measured in the same manner as in Example 30.

IC50	SMILES
2100 nM	O=c1[nH]c2c3c(ccc2n(-c2cccc(NS(=O)(=O)c4ccccc4[N+](=O)[O-])c2)c1=O)CCCC3 [Example 9, N-[3-(2,3-Dioxo-2,3,7,8,9,10-hexahydrobenzo[f]quinoxalin-4(1H)-yl)phenyl]-2-nitrobenzenesulfonamide]
6600 nM	COc1cccc(-n2c(=O)c(=O)[nH]c3c4ccccc4ccc32)c1 [Example 3, 4-(3-Methoxyphenyl)-1,4-dihydrobenzo[f]quinoxaline-2,3-dione]
460 nM	O=c1[nH]c2c3ccccc3ccc2n(-c2cccc(-c3nnn[nH]3)c2)c1=O [Example 2, 4-[3-(1H-Tetrazol-5-yl)phenyl]-1,4-dihydrobenzo[f]quinoxaline-2,3-dione sodium salt]
5100 nM	Nc1cccc(-n2c(=O)c(=O)[nH]c3c4c(ccc32)CCCC4)c1 [Example 7, 4-(3-Aminophenyl)-1,4,7,8,9,10-hexahydrobenzo[f]quinoxaline-2,3-dione hydrochloride]

Same assay, conditions: Table 26, Example 31; same manner as in Example 30; read-out: IC50 (P2X4 receptor antagonism)

IC50	SMILES
5700 nM	Nc1ccc(-n2c(=O)c(=O)[nH]c3c4ccccc4ccc32)cc1 [Example 18, 4-(4-Aminophenyl)-1,4-dihydrobenzo[f]quinoxaline-2,3-dione hydrochloride]
2600 nM	O=c1[nH]c2c3c(ccc2n(-c2cccc(NS(=O)(=O)c4cccc5ccccc45)c2)c1=O)CCCC3 [Example 24, N-[3-(2,3-Dioxo-2,3,7,8,9,10-hexahydro-1H-benzo[f]quinoxalin-4-yl)phenyl]-1-naphthalenesulfonamide]
800 nM	O=c1[nH]c2c3c(ccc2n(-c2cccc(NS(=O)(=O)c4ccccc4)c2)c1=O)CCCC3 [Example 22, N-[3-(2,3-Dioxo-2,3,7,8,9,10-hexahydro-1H-benzo[f]quinoxalin-4-yl)phenyl]benzenesulfonamide]
880 nM	O=C(Cc1ccccc1I)Nc1cccc(-n2c(=O)c(=O)[nH]c3c4ccccc4ccc32)c1 [Example 14, 4-[3-[(2-Iodophenylacetyl)amino]phenyl)-1,4-dihydrobenzo[f]quinoxaline-2,3-dione]
6700 nM	Cc1nnc(-c2cccc(-n3c(=O)c(=O)[nH]c4c5ccccc5ccc43)c2)o1 [Example 15, 4-[3-(5-Methyl-[1,3,4]oxadiazol-2-yl)phenyl]-1,4-dihydrobenzo[f]quinoxaline-2,3-dione]
1900 nM	O=c1[nH]c2c3c(ccc2n(-c2cccc(NS(=O)(=O)c4cccc5cccnc45)c2)c1=O)CCCC3 [Example 28, N-[3-(2,3-Dioxo-2,3,7,8,9,10-hexahydro-1H-benzo[f]quinoxalin-4-yl)phenyl]-8-quinolinesulfonamide hydrochloride]
3000 nM	O=c1[nH]c2c3c(ccc2n(-c2cccc(NS(=O)(=O)c4cccnc4)c2)c1=O)CCCC3 [Example 27, N-[3-(2,3-Dioxo-2,3,7,8,9,10-hexahydro-1H-benzo[f]quinoxalin-4-yl)phenyl]-3-pyridinesulfonamide hydrochloride]
2100 nM	Nc1cccc(-n2c(=O)c(=O)[nH]c3c4ccccc4ccc32)c1 [Example 13, 4-(3-Aminophenyl)-1,4-dihydrobenzo[f]quinoxaline-2,3-dione hydrochloride]
1300 nM	O=c1[nH]c2c3c(ccc2n(-c2cccc(NS(=O)(=O)c4cccc(Br)c4)c2)c1=O)CCCC3 [Example 23, 3-Bromo-N-[3-(2,3-dioxo-2,3,7,8,9,10-hexahydro-1H-benzo[f]quinoxalin-4-yl)phenyl]benzenesulfonamide]
1800 nM	O=c1[nH]c2c3c(ccc2n(-c2cccc(NS(=O)(=O)c4cccs4)c2)c1=O)CCCC3 [Example 26, N-[3-(2,3-Dioxo-2,3,7,8,9,10-hexahydro-1H-benzo[f]quinoxalin-4-yl)phenyl]-2-thiophenesulfonamide]
2700 nM	O=c1[nH]c2c3ccccc3ccc2n(-c2ccc(O)cc2)c1=O [Example 17, 4-(4-Hydroxyphenyl)-1,4-dihydrobenzo[f]quinoxaline-2,3-dione sodium salt]
7700 nM	O=C(Nc1cccc(-n2c(=O)c(=O)[nH]c3c4c(ccc32)CCCC4)c1)c1ccccc1C(F)(F)F [Example 21]
